Laboratory results: paper PMC11124525, “Pharmacokinetic–Pharmacodynamic Correlation Analysis of Rhodiola crenulata in Rats with Myocardial Ischemia” (Pharmaceuticals, 2024)
Entries after “also recorded” stand apart in the source; their conditions may differ. Read-outs that look alike come from different tables or passages of the source.

Legend:
[1] = PK of five RC components in sham operation administration (SDG, normal) rats after oral RC extract, HPLC-QQQ-MS/MS, DAS; assay type: in vivo, SD rats; conditions: rat, SDG rats, oral RC extract 2 g/kg, plasma, mean ± SD, n = 6; for AUC(0-t): read-out: AUC(0−t); for AUC(0-inf): read-out: AUC(0−∞); for CL/F: read-out: CLz/F (converted); for Cmax: read-out: Cmax; for MRT: read-out: MRT(0−); for MRT inf: read-out: MRT(0−∞); for Tmax: read-out: Tmax; for Vd/F: read-out: Vz/F; for half-life: read-out: t1/2z (converted)
Description: (§1) The drug concentration in plasma was calculated using the standard curve, and the mean blood concentration was plotted against the time to obtain the mean blood concentration–time curve (Figure 4).
(§2) The rat model of MI was made with Pit. The rats were divided into a sham operation group (SG), sham operation administration group (SDG), model group (MG), and model administration group (MDG) (n = 6 for each group). The MI model was prepared via an intraperitoneal injection (a single time) of Pit in the MG and MDG, with a dosage of 20 U/kg and a volume of 10 mL/kg. At the same time, the rats in the SG and SDG groups were given the same volume of saline in the same way.
(§3) RC extract (2 g/kg, equivalent to human clinical equivalent dose) was given to rats via oral administration in SDG and MDG, and the same volume of normal saline was orally administered to the SG and MG. Rats were fasted for 12 h before the experiment. Blood was collected from the fundus venous plexus at 0, 5, 10, 15, 30, 45 min, 1, 2, 4, 6, 8, 12, and 24 h after in gavage, placed in a centrifuge tube impregnated with heparin sodium, centrifuged at 3500 rpm for 15 min, and then the plasma was collected and divided into two parts. One part was used for biochemical index determination and the other part was used to determine the content of pharmaceutical ingredients in vivo. After the experiment, the rats were sacrificed, and the hearts were placed in paraformaldehyde for histopathological analysis.
(§4) The plasma sample of 100 μL was accurately absorbed, 50 μL internal standard solution (Nimodipine, 500 ng/mL) was added, then 300 μL acetonitrile precipitated protein was added, vortex for 10 min, placed under ultrasound for 3 min, centrifuged at 13,000 rpm for 10 min, and then the supernatant was transferred to another centrifuge tube. It was then concentrated until dry with a rotary evaporator. The residue was redissolved with 100 μL 50% acetonitrile, swirled for 1 min, placed under ultrasonic for 3 min, centrifuged at 13,000 rpm for 10 min, and the supernatant was taken for analysis.
(§5) A validated HPLC-QQQ-MS/MS method was used for the determination of drug-derived components in plasma samples at different time points. The accompanying standard curve was substituted to calculate the content of the compounds to be measured, and then the PK parameters were calculated using DAS software (version 3.2.8), and the blood concentration–time curve was plotted using GraphPad Prism (version 8.0.2). PK behavior was compared between the sham operation and model group, and PK models were established, respectively.

[2] = PK of five RC components in pituitrin-induced myocardial ischemia (MDG) rats after oral RC extract, HPLC-QQQ-MS/MS, DAS; assay type: in vivo, SD rats; conditions: for Change of CLZ/F in MDG compared with SDG / Change of Cmax in MDG compared with SDG: MDG vs SDG rats; for AUC(0-t) / AUC(0-inf) / CL/F / Cmax / MRT / MRT inf / Tmax / Vd/F / half-life: rat, plasma; for AUC(0-t): read-out: AUC(0−t); for AUC(0-inf): read-out: AUC(0−∞); for CL/F: read-out: CLz/F (converted); for Cmax: read-out: Cmax; for MRT: read-out: MRT(0−); for MRT inf: read-out: MRT(0−∞); for Vd/F: read-out: Vz/F; for half-life: read-out: t1/2z (converted)
Description: as §1, §2, §3, §4, §5

AST = assay: PK-PD sigmoid-Emax model, PD index AST in MDG rats; assay type: in vivo, SD rats; design: unit not given beside the values
CK = assay: PK-PD sigmoid-Emax model, PD index CK in MDG rats; assay type: in vivo, SD rats; design: Emax: unit not given beside the values
HBDH = assay: PK-PD sigmoid-Emax model, PD index HBDH in MDG rats; assay type: in vivo, SD rats; design: unit not given beside the values
SOD = assay: PK-PD sigmoid-Emax model, PD index SOD in MDG rats; assay type: in vivo, SD rats; design: Ke0: unit not given beside the values
[3] = rat
Description: A series concentration mixed reference solution with different concentrations was added to 100 μL plasma, and was treated according to the method under Section 4.6 to obtain the matrix standard curve sample. Samples with concentrations of 400, 100, and 10 ng/mL, respectively, were taken as quality control (QC) samples of high, medium, and low concentrations (HQC, MQC, LQC). The method was validated, including linearity, inter-day/intra-day precision, repeatability, stability, extraction recovery, and matrix effect, according to FDA bioanalytical method validation guidelines.

[4] = cited from earlier work
LDH = assay: PK-PD sigmoid-Emax model, PD index LDH in MDG rats
Description: Subsequently, we incorporated the PK and PD data to conduct PK-PD modeling through DAS.
Therefore, PK-PD correlation analysis was used in this study, linking dynamic concentration–time processes and effect–time profile relationships [20, 21, 22]. […] The model adopted in this study is the S-Emax model. In the equation, γ means the shape factor in the formula, affecting the slope and determining the steepness of the curve. Emax can provide the maximum response intensity, and ED50 is for evaluating the safety of the drug, which is understood as the amount of the drug that causes 50% of the maximum response intensity.
Plasma creatine kinase (CK), hydroxybutyrate dehydrogenase (HBDH), lactate dehydrogenase (LDH), and superoxide dismutase (SOD) activity was determined using an automatic biochemical analyzer.
The activity of the CK, HBDH, LDH, and SOD of plasma samples collected at different time points was determined using an automatic biochemical analyzer for PD index evaluation. […] Two compartmental methods were used, employing the drug and statistics, which was supplied by the Chinese Pharmacological Society. Then, the efficacy indicators were fitted in the PK-PD model.

[5] = in vivo, MDG (myocardial ischemia) rats, oral RC extract 2 g/kg, mean ± SD, n = 6
[6] = SD, po, 2 g/kg, MDG (myocardial ischemia) rats, oral RC extract 2 g/kg, mean ± SD, n = 6, read-out: Tmax
[7] = SD, po, 2 g/kg, according to the PK results, group not given, oral RC extract, read-out: Tmax (approximate)
[8] = MDG (myocardial ischemia) rats, oral RC extract 2 g/kg, mean ± SD, n = 6

Compound: O=c1c(O)c(-c2ccc(O)cc2)oc2cc(O)cc(O)c12 [Kaempferol, kaempferol]
- AUC(0-t) ([1]; in vivo): 306 ± 30.5 ng·h/mL
- AUC(0-inf) ([1]; in vivo): 427 ± 95.4 ng·h/mL
- CL/F ([1]; in vivo): 203 mL/min/kg
- Cmax ([1]; in vivo): 31.2 ± 1.53 ng/mL
- MRT ([1]; in vivo): 8.54 ± 0.55 h
- MRT inf ([1]; in vivo): 19.4 ± 9.37 h
- Tmax ([1]; in vivo): 1.67 ± 1.21 h
- Vd/F ([1]; in vivo): 224 ± 107 L/kg
- half-life ([1]; in vivo): 14.1 ± 8.42 h
- Change of CLZ/F in MDG compared with SDG ([2]; oral RC extract 2 g/kg): marked decreasing tendency; also recorded: decreased significantly
- Change of Cmax in MDG compared with SDG ([2]; oral RC extract 2 g/kg): increased significantly; also recorded: significantly increased
- AUC(0-t) [2, 5]: 354 ± 50.4 ng·h/mL
- AUC(0-inf) [2, 5]: 645 ± 179 ng·h/mL
- CL/F [2, 5]: 140 mL/min/kg
- Cmax [2, 5]: 38.4 ± 4.92 ng/mL
- MRT [2, 5]: 9.05 ± 0.7 h
- MRT inf [2, 5]: 30.9 ± 14.1 h
- Tmax ([2]; in vivo, MDG (myocardial ischemia) rats, oral RC extract 2 g/kg, mean ± SD, n = 6, read-out: Tmax): 0.75 h
- Vd/F [2, 5]: 245 ± 67 L/kg
- half-life [2, 5]: 22.7 ± 10.7 h
- Emax (AST): 1422.742
- Ke0 (AST): 2.998
- Emax (CK): 2736.472
- Ke0 (CK): 2.998
- Emax (HBDH): 6565.084
- Ke0 (HBDH): 0.928
- Emax (SOD): 68.398
- Ke0 (SOD): 0.115
- Stability RE (%) ([3]; 10 ng/mL): 102.9%
- Stability RE (%) ([3]; 400 ng/mL): 94.57%
- Stability RE (%) ([3]; 48 h, 10 ng/mL): 101.5%
- Stability RE (%) ([3]; 48 h, 50 ng/mL): 90.22%
- Stability RE (%) ([3]; 48 h, 400 ng/mL): 92.55%
- Stability RE (%) ([3]; 10 days, 50 ng/mL): 99.12%
- Stability RE (%) ([3]; 10 days, 400 ng/mL): 100.4%
- AUC, MRT, t1/2, and Cmax in modeled rats ([4]; modeled rats (disease state)): increased
- Clearance in modeled rats ([4]; modeled rats (disease state)): decreased
- Emax (LDH): 599.812

Compound: OC[C@H]1O[C@@H](OCCc2ccc(O)cc2)[C@H](O)[C@@H](O)[C@@H]1O [Salidroside, salidroside]
- AUC(0-t) [1]: 5710 ± 321 ng·h/mL
- AUC(0-inf) [1]: 8350 ± 2310 ng·h/mL
- CL/F [1]: 10.7 mL/min/kg
- Cmax [1]: 1010 ± 84.2 ng/mL
- MRT [1]: 7.14 ± 0.51 h
- Tmax [1]: 0.75 ± 0.16 h
- Vd/F [1]: 15.2 ± 8.77 L/kg
- half-life [1]: 19.9 ± 16 h
- Change of Cmax in MDG compared with SDG ([2]; oral RC extract 2 g/kg): increased significantly; also recorded: significantly increased
- Tmax [2, 6]: 0.83 ± 0.13 h
- Tmax [2, 7]: ~1 h
- AUC(0-t) [2, 8]: 7790 ± 1160 ng·h/mL
- AUC(0-inf) [2, 8]: 10000 ng·h/mL
- CL/F [2, 8]: 8.67 mL/min/kg
- Cmax [2, 8]: 1350 ± 133 ng/mL
- MRT [2, 8]: 6.7 ± 0.61 h
- MRT inf [2, 8]: 16.7 ± 9.83 h
- Vd/F [2, 8]: 10.7 ± 7.46 L/kg
- half-life [2, 8]: 15.4 ± 11.2 h
- Emax (AST): 1091.001
- Ke0 (AST): 2.821
- Emax (CK): 2288.494
- Ke0 (CK): 2.698
- Emax (HBDH): 4898.547
- Ke0 (HBDH): 0.46
- Emax (SOD): 71.79
- Ke0 (SOD): 0.025
- Stability RE (%) ([3]; 10 ng/mL): 90.22%
- Stability RE (%) ([3]; 400 ng/mL): 99.82%
- Stability RE (%) ([3]; 48 h, 10 ng/mL): 89.72%
- Stability RE (%) ([3]; 48 h, 50 ng/mL): 90.35%
- Stability RE (%) ([3]; 48 h, 400 ng/mL): 98.56%
- Stability RE (%) ([3]; 10 days, 10 ng/mL): 88.35%
- Stability RE (%) ([3]; 10 days, 50 ng/mL): 100.1%
- Stability RE (%) ([3]; 10 days, 400 ng/mL): 97.63%
- Systemic exposure in hypoxia ([4]; hypoxia): increased significantly
- Bioavailability under pathological conditions [4]: increased significantly
- Emax (LDH): 482.587
- Ke0 (LDH): 2.476

Compound: OCCc1ccc(O)cc1 [Tyrosol, tyrosol]
- AUC(0-t) [1]: 653 ± 63.2 ng·h/mL
- AUC(0-inf) [1]: 729 ± 49.2 ng·h/mL
- CL/F [1]: 115 mL/min/kg
- Cmax [1]: 132 ± 12.6 ng/mL
- MRT [1]: 5.59 ± 0.5 h
- MRT inf [1]: 9.86 ± 5.68 h
- Tmax [1]: 1.17 ± 0.41 h
- Vd/F [1]: 97 ± 70.2 L/kg
- half-life [1]: 10 ± 7.64 h
- Change of CLZ/F in MDG compared with SDG ([2]; oral RC extract 2 g/kg): marked decreasing tendency; also recorded: decreased significantly
- Tmax [2, 6]: 0.96 ± 0.1 h
- Tmax [2, 7]: ~1 h
- AUC(0-t) [2, 8]: 837 ± 66.8 ng·h/mL
- AUC(0-inf) [2, 8]: 1100 ± 258 ng·h/mL
- CL/F [2, 8]: 79.2 mL/min/kg
- Cmax [2, 8]: 143.4 ± 1.41 ng/mL
- MRT [2, 8]: 6.54 ± 0.91 h
- MRT inf [2, 8]: 16.8 ± 9.96 h
- Vd/F [2, 8]: 94.4 ± 44.4 L/kg
- half-life [2, 8]: 15.6 ± 0.79 h
- Emax (AST): 1213.835
- Ke0 (AST): 2.998
- Emax (CK): 2289.882
- Ke0 (CK): 2.998
- Emax (HBDH): 7149.416
- Ke0 (HBDH): 0.724
- Emax (SOD): 68.804
- Ke0 (SOD): 0.043
- Stability RE (%) ([3]; 10 ng/mL): 94.31%
- Stability RE (%) ([3]; 50 ng/mL): 96.93%
- Stability RE (%) ([3]; 400 ng/mL): 97.75%
- Stability RE (%) ([3]; 48 h, 10 ng/mL): 85.44%
- Stability RE (%) ([3]; 48 h, 50 ng/mL): 90.28%
- Stability RE (%) ([3]; 10 days, 10 ng/mL): 99.52%
- Stability RE (%) ([3]; 10 days, 400 ng/mL): 89.70%
- Bioavailability under pathological conditions [4]: increased significantly
- Emax (LDH): 483.057
- Ke0 (LDH): 2.848

Compound: rhodiosin
- Emax (AST): 1084.02
- Ke0 (AST): 2.998
- Emax (CK): 2289.293
- Ke0 (CK): 2.998
- Emax (HBDH): 4335.008
- Ke0 (HBDH): 0.469
- Emax (SOD): 72.933
- Ke0 (SOD): 0.055
- Emax (LDH): 484.31
- Ke0 (LDH): 2.998
